Laboratory results as given in patent US12427212B2, “Nectin-4 binding miniproteins, conjugates and uses thereof” (Aktis Oncology, Inc., priority 2023, dated 2025).
pKd: −log10 of the molar value. Bridges are numbered along the chain shown (N, C = ends). [ ]: non-standard residue; d: D form. The star is where a group is joined. DOTA = O=C(O)CN1CCN(CC(=O)O)CCN(CC(=O)*)CCN(CC(=O)O)CC1; Biotin = O=C1N[C@H]2[C@H](CS[C@H]2CCCCC(=O)*)N1; Lys(Me3) = C[N+](C)(C)CCCC[C@H](N)C(=O)O; Cit = NC(=O)NCCC[C@H](N)C(=O)O; PEG4 = NCCOCCOCCOCCOCCC(=O)O

Tested on: not listed separately
Test: In vivo biodistribution of 111In-labeled miniproteins by SPECT/CT, HT-1376 xenograft
Set-up: species or system mouse
Conditions: female, athymic nude, mouse, in vivo
Text: HT-1376 is a human cell line that expresses Nectin-4.
Humane endpoints: All animals were euthanized following the final imaging time point and carcasses were discarded according to IACUC protocols.
Image Processing: Images were generated as SPECT/CT pairs with the SPECT reported in units of activity.
Image generation: After the preprocessing described in A, individual maximum intensity projections (MIPs) were created with VivoQuant software for each subject at each time point and scaled in percent injected dose per gram (% ID/g). The CT for each image was windowed from −500 to 4500 Hounsfield Units (HU). The SPECT was windowed at various ranges to highlight different regions of uptake. Images were then stitched together using Image Magick based python tools to create montages of subjects over time and time points over groups.
CC[C@H](C)[C@@H]1NC(=O)[C@H](Cc2ccc(O)cc2)NC(=O)[C@H](Cc2ccc(O)cc2)NC(=O)[C@@H]2CSSC[C@@H](C(=O)O)NC(=O)CNC(=O)[C@H](CC(C)C)NC(=O)[C@H](CC(N)=O)NC(=O)[C@H](CCC(=O)O)NC(=O)[C@H](CC(C)C)NC(=O)[C@H]([C@@H](C)CC)NC(=O)[C@H](CCC(=O)O)NC(=O)[C@H](CCC(=O)O)NC(=O)[C@H]([C@@H](C)CC)NC(=O)[C@H](CSSC[C@H](NC(C)=O)C(=O)N[C@@H](CCC(=O)O)C(=O)N[C@@H](Cc3ccc(O)cc3)C(=O)N[C@@H](CC(=O)O)C(=O)N[C@@H](CCC(=O)O)C(=O)N[C@@H](CCC(N)=O)C(=O)N[C@@H](Cc3ccccc3)C(=O)N[C@@H](Cc3ccccc3)C(=O)N[C@@H]([C@@H](C)O)C(=O)N[C@@H](C)C(=O)N[C@@H](CC(C)C)C(=O)N[C@@H](CCCCN)C(=O)N[C@@H](CCCNC(=N)N)C(=O)N[C@@H](CC(C)C)C(=O)N[C@@H](CCCNC(=N)N)C(=O)NCC(=O)NCC(=O)N[C@@H](CC(=O)O)C(=O)N[C@@H]([C@@H](C)CC)C(=O)N2)NC(=O)[C@H](CC(C)C)NC(=O)[C@H](CC(=O)O)NC(=O)[C@@H]2CCCN2C(=O)[C@H](CC(C)C)NC(=O)[C@H]([C@@H](C)O)NC(=O)[C@H](CC(N)=O)NC(=O)[C@H](Cc2ccccc2)NC(=O)[C@H](CCC(N)=O)NC(=O)[C@H](C)NC(=O)[C@H](CO)NC1=O [Compound C100] gave a tissue uptake at 4 h of 112 %ID/g and a tissue uptake at 24 h of 61.8 %ID/g. “{DOTA-PEG4}-CEYDEEFFTALKRLRGGDICYYIQKAFQYLPGLCIEEILDNLGCS-OH (disulfide 1-34, 20-44) [Compound C121]” showed a tissue uptake at 4 h of 100 %ID/g and a tissue uptake at 24 h of 60.4 %ID/g. Compound “{DOTA-PEG4}-CEYDEEFFTALSRLRGGDICYYIQQAFQYLPGLCIEEILDNLGCS-OH (disulfide 1-34, 20-44) [Compound C133]” has a tissue uptake at 4 h of 43.8 %ID/g and a tissue uptake at 24 h of 20.9 %ID/g. In the case of “{DOTA-PEG4}-CEYDEQFFTALARLRGGDICYYIQEQFATVPGLCIEEILDQLGCS-OH (disulfide 1-34, 20-44) [Compound C129]”, the tissue uptake at 4 h was 43.5 %ID/g and the tissue uptake at 24 h was 19.9 %ID/g. “{DOTA-PEG4}-CEYDEQFFTALSSLRGGDICYYIQEQFANVPGICIEEILDNLGCS-OH (disulfide 1-34, 20-44) [Compound C137]” showed a tissue uptake at 4 h of 78.8 %ID/g and a tissue uptake at 24 h of 42.9 %ID/g.

Molecular target: T1, Nectin-4 (Homo sapiens, UniProt Q96NY8)
T1 sequence (Q96NY8 32-510): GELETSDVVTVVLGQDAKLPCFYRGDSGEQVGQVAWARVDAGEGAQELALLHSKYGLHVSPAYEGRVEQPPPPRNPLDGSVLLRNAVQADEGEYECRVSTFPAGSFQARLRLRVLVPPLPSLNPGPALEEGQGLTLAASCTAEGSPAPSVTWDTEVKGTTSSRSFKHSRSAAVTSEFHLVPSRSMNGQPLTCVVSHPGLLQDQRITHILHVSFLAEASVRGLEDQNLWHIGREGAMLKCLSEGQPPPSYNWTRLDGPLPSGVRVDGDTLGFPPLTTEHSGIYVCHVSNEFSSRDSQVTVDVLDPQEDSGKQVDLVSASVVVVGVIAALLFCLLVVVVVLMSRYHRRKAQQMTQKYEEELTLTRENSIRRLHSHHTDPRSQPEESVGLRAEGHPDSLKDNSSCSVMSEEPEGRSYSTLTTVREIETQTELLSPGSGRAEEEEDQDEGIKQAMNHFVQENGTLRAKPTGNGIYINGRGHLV
Test: DELFIA whole cell binding assay, equilibrium binding affinity (KD), Table 2B
Conditions: not given
Method: A whole cell binding assay was used to estimate the equilibrium binding affinity (KD) or binding inhibition constant (Ki) of miniprotein ligands to cells expressing a target of interest. Cells were dispensed into a 384-well plate and incubated at 37° C., in 5% CO2 overnight. The next day cells were gently washed once in assay buffer prior to addition of europium chelated ligand. For KD determination, a miniprotein conjugated with europium chelate (DOTA or DTPA) in the presence or absence of 100-fold excess un-conjugated ligand was incubated with cells over 12 different concentrations ranging from 100 times below and above expected KD values. For Ki determination, a single concentration (KD equivalent concentration) of europium-chelate miniprotein was added to each well followed immediately by the addition of unconjugated competing ligand over 12 different concentrations ranging from 100 times below and above expected Ki values as before. The plate was incubated for 1.5 h at room temperature to reach binding equilibrium. Cells were then washed three times at room temperature with 1×PBS followed by the addition of 2 M HCl and incubated for two h at 37° C. Following this step, 2 M NaOH and fluorescent inducer solution were added to each well and incubated for 30 minutes at room temperature according to the manufacturer's protocol (Perkin-ELMER DELFIA assay). Plates were read on an Envision plate reader and a curve-fitting model was applied to estimate KD and Ki values using GraphPad Prism software. Mean DELFIA K; values for exemplary miniproteins are recorded in TABLE 9A.
In the case of “{Biotin-PEG4}-CDYDEEFFTALA[Cit]LRGGDICEYIQAKFQYLPGLCIEEILDNLGCS-OH (disulfide 1-34, 20-44) [Compound C176]”, the pKd was 8.89. With “{Biotin-PEG4}-CDYDEEFFTALKRLRGDDICSYIQASFQYLPGLCIEEILDNLGCS-OH (disulfide 1-34, 20-44) [Compound C192]” the pKd was 8.89. Compound “{Biotin-PEG4}-CDYDEEFFTALKRLRGGDICEYIQASFQYLPGLCIEEILDNLGCS-OH (disulfide 1-34, 20-44) [Compound C188]” has a pKd of 8.80. Compound “{Biotin-PEG4}-CEYDEAFFTALARLRGGDICQYIQAKFQYLPGLCIEEILDNLGCS-OH (disulfide 1-34, 20-44) [Compound C151]” has a pKd of 9.17. In the case of “{Biotin-PEG4}-CEYDEEFFTALARLRGGDICEYIQAKFQYLPKLCIEEILDNLGCS-OH (disulfide 1-34, 20-44) [Compound C167]”, the pKd was 8.92. Work on “{Biotin-PEG4}-CEYDEEFFTALARLRGGDICQYIQAKFAYVPGLCIEEILDNLGCS-OH (disulfide 1-34, 20-44) [Compound C155]” yielded a pKd of 8.96. In the case of “{Biotin-PEG4}-CEYDEEFFTALARLRGGDICYYIQAYFQYLPGLCIEEILDNLGCS-OH (disulfide 1-34, 20-44) [Compound C165]”, the pKd was 8.39. With “{Biotin-PEG4}-CEYDEEFFTALA[Cit]LRGDDICSYIQAKFQYLPGLCIEEILDNLGCS-OH (disulfide 1-34, 20-44) [Compound C172]” the pKd was 8.74. For “{Biotin-PEG4}-CEYDEEFFTALA[Cit]LRGGDICEYIQAKFQYLPGLCIEEILDNLGCS-OH (disulfide 1-34, 20-44) [Compound C171]”, the pKd was 8.66. Work on “{Biotin-PEG4}-CEYDEEFFTALA[Cit]LRGGDICSYIQAKFQYLPGLCIEEILDNLGCS-OH (disulfide 1-34, 20-44) [Compound C175]” yielded a pKd of 8.64. Work on “{Biotin-PEG4}-CEYDEEFFTALKRLRGDDICEYIQASFQYLPGLCIEEILDNLGCS-OH (disulfide 1-34, 20-44) [Compound C181]” yielded a pKd of 8.52. “{Biotin-PEG4}-CEYDEEFFTALKRLRGDDICYYIQASFQYLPGLCIEEILDNLGCS-OH (disulfide 1-34, 20-44) [Compound C180]” gave a pKd of 8.57. “{Biotin-PEG4}-CEYDEEFFTALKRLRGGDICEYIQASFQYLPGLCIEEILDNLGCS-OH (disulfide 1-34, 20-44) [Compound C178]” gave a pKd of 8.85. In the case of “{Biotin-PEG4}-CEYDEEFFTALKRLRGGDICEYIQA[Lys(Me3)]FQYLPGLCIEEILDNLGCS-OH (disulfide 1-34, 20-44) [Compound C201]”, the pKd was 9.17. With “{Biotin-PEG4}-CEYDEEFFTALKRLRGGDICYYIQAKFQYLPKLCIEEILDNLGCS-OH (disulfide 1-34, 20-44) [Compound C119]” the pKd was 9.02. In the case of “{Biotin-PEG4}-CEYDEEFFTALKRLRGGDICYYIQASFQYLPGECIEEILDNLGCS-OH (disulfide 1-34, 20-44) [Compound C177]”, the pKd was 8.70. Compound “{Biotin-PEG4}-CEYDEQFFTALARLRGGDICEYIQAKFQYLPGLCIEEILDNLGCS-OH (disulfide 1-34, 20-44) [Compound C146]” has a pKd of 9.27. With “{Biotin-PEG4}-CEYDEQFFTALKRLRGADICDYIQASFQYLPGLCIEEILDNLGCS-OH (disulfide 1-34, 20-44) [Compound C194]” the pKd was 8.96. For “{Biotin-PEG4}-CEYDEQFFTALKRLRGGDICDYIQASFQYLPGLCIEEILDNLGCS-OH (disulfide 1-34, 20-44) [Compound C196]”, the pKd was 8.80.

Same assay, conditions: Table 2B, binding to Nectin-4; read-out: Binding Affinity (KD)
“Ac-CEYDEEFFAGLKRLRRGDICYYIKKKFDKVPDLCIEEILDKLGC-OH (disulfide 1-34, 20-44) [Compound C14]” gave a pKd of 7.85. With “Ac-CEYDEEFFKGLKRLRGGDICYYIKKKFKKVPKLCIEEILDKLGC-OH (disulfide 1-34, 20-44) [Compound C80]” the pKd was 8.57. Compound “Ac-CEYDEEFFLGLKRLRGGDICYYIKKKFKKVPDLCIEEILDKLGC-OH (disulfide 1-34, 20-44) [Compound C34]” has a pKd of 8.50. “Ac-CEYDEEFFLGLKRLRGGDICYYIKKKFKKVPDLCIEEILEKLGC-OH (disulfide 1-34, 20-44) [Compound C60]” showed a pKd of 8.50. Work on “Ac-CEYDEEFFLGLKRLRGGDICYYIKKKFKKVPELCIEEILKKLGC-OH (disulfide 1-34, 20-44) [Compound C67]” yielded a pKd of 8.58. “Ac-CEYDEEFFTALARLRGGDICYYIQAKFQYLPGLCIEEILDNLGCS-OH (disulfide 1-34, 20-44) [Compound C124]” gave a pKd of 8.96. In the case of “Ac-CEYDEKFFTGLKRLRGGDICYYIKKKFKKVPKLCIEEILDKLGC-OH (disulfide 1-34, 20-44) [Compound C70]”, the pKd was 8.66.
